Read-outs that look alike come from different tables or passages of the source.
Assays:
[1] = biological target: T1, FITC-labeled CFTRpS753pS768 peptide (no 14-3-3) (Homo sapiens, UniProt P13569); assay: Dose-response FP control assay in the absence of 14-3-3; assay type: binding; conditions: No 14-3-3
T1 construct: made in house; host or cells: synthetic peptide
In short: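 Control run without 14-3-3: FITC-CFTR pS753/pS768 peptide (100 nM or 10 nM) with compound titrated in twofold dilutions in 10 mM HEPES pH 7.4, 150 mM NaCl, 0.1% Tween20, 1 mg/mL BSA. Fluorescence polarization read at ex 485/em 535 nm, background subtracted, n = 3. Curves fitted by four-parameter log(agonist) vs. response.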

[2] = biological target: T2, 14-3-3β/CFTRpS753pS768 complex (Homo sapiens, UniProt P13569+P31946); assay: Dose-response fluorescence polarization (FP) assay, compound titration; assay type: binding; conditions: for EC50: 14-3-3β 10 μM, labeled CFTRpS753pS768 100 nM; for FP signal: With 14-3-3
T2 construct: His6 (cleaved yes); made in house; peptide synthetic
In short: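 Compounds were titrated in two-fold dilutions against 10 μM 14-3-3β and FITC-CFTR pS753pS768 peptide (100 nM or 10 nM). Buffer: 10 mM HEPES pH 7.4, 150 mM NaCl, 0.1% Tween20, 1 mg/mL BSA. Polarization was read at ex 485/em 535 nm, and EC50 was derived from a four-parameter variable-slope fit.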

T1 sequence (P13569 747-774 limits assumed): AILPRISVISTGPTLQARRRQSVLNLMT
T2 sequence (P31946 whole entry): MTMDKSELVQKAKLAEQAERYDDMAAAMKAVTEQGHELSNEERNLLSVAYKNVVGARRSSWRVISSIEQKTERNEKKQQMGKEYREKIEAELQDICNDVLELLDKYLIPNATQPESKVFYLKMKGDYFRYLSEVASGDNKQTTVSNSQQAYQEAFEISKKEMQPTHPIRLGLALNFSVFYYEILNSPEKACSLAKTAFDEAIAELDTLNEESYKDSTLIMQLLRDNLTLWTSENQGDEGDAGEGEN

Q: How did the FP signal ([1]; compound 476.8 pM) turn out when `N=C(N)NCCCC1NC(=O)C(CCC(N)=O)NC(=O)C(CCCNC(=N)N)NC(=O)C2CCCN2Cc2cccc(c2)-c2ccccc2CNC1=O` (stereo not drawn) [CY007458] was run?
A: 6

Q: And the FP signal ([1]; compound 953.7 pM)?
A: 5

Q: And the FP signal ([1]; compound 1.90735e-9 M)?
A: 4

Q: And the FP signal ([1]; compound 3.8147e-9 M)?
A: 5

Q: And the FP signal ([1]; compound 7.6294e-9 M)?
A: 7

Q: What about the FP signal ([1]; compound 1.52588e-8 M) of the same molecule?
A: 4

Q: What about the FP signal ([1]; compound 3.05176e-8 M) of the same molecule?
A: 6

Q: And the FP signal ([1]; compound 6.10352e-8 M)?
A: 5

Q: And the FP signal ([1]; compound 1.2207e-7 M)?
A: 4

Q: What about the FP signal ([1]; compound 2.44141e-7 M) of the same molecule?
A: 5

Q: What about the FP signal ([1]; compound 4.88281e-7 M) of the same molecule?
A: 6

Q: What about the FP signal ([1]; compound 9.76563e-7 M) of the same molecule?
A: 6

Q: What about the FP signal ([1]; compound 1.95313e-6 M) of the same molecule?
A: 5

Q: And the FP signal ([1]; compound 3.90625e-6 M)?
A: 8

Q: What about the FP signal ([1]; compound 7.8125e-6 M) of the same molecule?
A: 11

Q: What about the FP signal ([1]; compound 1.5625e-5 M) of the same molecule?
A: 15

Q: And the FP signal ([1]; compound 3.125e-5 M)?
A: 33

Q: And the FP signal ([1]; compound 6.25e-5 M)?
A: 65

Q: What about the FP signal ([1]; compound 0.000125 M) of the same molecule?
A: 124

Q: What about the FP signal ([1]; compound 0.00025 M) of the same molecule?
A: 179

Q: What about the FP signal ([1]; compound 0.0005 M) of the same molecule?
A: 221

Q: And the FP signal ([1]; compound 0.001 M)?
A: 252

Q: What about the EC50 ([2]; read-out: EC50) of the same molecule?
A: 151 µM

Q: And the FP signal ([2]; compound 476.8 pM)?
A: 6

Q: And the FP signal ([2]; compound 953.7 pM)?
A: 5

Q: What about the FP signal ([2]; compound 1.90735e-9 M) of the same molecule?
A: 4

Q: And the FP signal ([2]; compound 3.8147e-9 M)?
A: 5

Q: And the FP signal ([2]; compound 7.6294e-9 M)?
A: 7

Q: What about the FP signal ([2]; compound 1.52588e-8 M) of the same molecule?
A: 4

Q: And the FP signal ([2]; compound 3.05176e-8 M)?
A: 6

Q: And the FP signal ([2]; compound 6.10352e-8 M)?
A: 5

Q: What about the FP signal ([2]; compound 1.2207e-7 M) of the same molecule?
A: 4

Q: And the FP signal ([2]; compound 2.44141e-7 M)?
A: 5

Q: What about the FP signal ([2]; compound 4.88281e-7 M) of the same molecule?
A: 6

Q: And the FP signal ([2]; compound 9.76563e-7 M)?
A: 6

Q: What about the FP signal ([2]; compound 1.95313e-6 M) of the same molecule?
A: 5

Q: And the FP signal ([2]; compound 3.90625e-6 M)?
A: 8

Q: And the FP signal ([2]; compound 7.8125e-6 M)?
A: 11

Q: What about the FP signal ([2]; compound 1.5625e-5 M) of the same molecule?
A: 15

Q: And the FP signal ([2]; compound 3.125e-5 M)?
A: 33

Q: And the FP signal ([2]; compound 6.25e-5 M)?
A: 65

Q: What about the FP signal ([2]; compound 0.000125 M) of the same molecule?
A: 124

Q: What about the FP signal ([2]; compound 0.00025 M) of the same molecule?
A: 179

Q: What about the FP signal ([2]; compound 0.0005 M) of the same molecule?
A: 221

Q: And the FP signal ([2]; compound 0.001 M)?
A: 252

Q: `N=C(N)NCCCC1NC(=O)C(CCC(N)=O)NC(=O)C(CCCNC(=N)N)NC(=O)C2CCCN2Cc2ccccc2Sc2ccccc2CNC1=O` (stereo not drawn) [CY007502] was tested. Which FP signal ([1]; compound 453 pM) did it give?
A: 1

Q: What about the FP signal ([1]; compound 906 pM) of the same molecule?
A: 2

Q: What about the FP signal ([1]; compound 1.81198e-9 M) of the same molecule?
A: 2

Q: And the FP signal ([1]; compound 3.62396e-9 M)?
A: 3

Q: And the FP signal ([1]; compound 7.24792e-9 M)?
A: 3

Q: And the FP signal ([1]; compound 1.44958e-8 M)?
A: 1

Q: What about the FP signal ([1]; compound 2.89917e-8 M) of the same molecule?
A: 3

Q: And the FP signal ([1]; compound 5.79834e-8 M)?
A: 4

Q: And the FP signal ([1]; compound 1.15967e-7 M)?
A: 3

Q: What about the FP signal ([1]; compound 2.31934e-7 M) of the same molecule?
A: 4

Q: What about the FP signal ([1]; compound 4.63867e-7 M) of the same molecule?
A: 6

Q: What about the FP signal ([1]; compound 9.27734e-7 M) of the same molecule?
A: 3

Q: And the FP signal ([1]; compound 1.85547e-6 M)?
A: 3

Q: What about the FP signal ([1]; compound 3.71094e-6 M) of the same molecule?
A: 4

Q: What about the FP signal ([1]; compound 7.42187e-6 M) of the same molecule?
A: 6

Q: And the FP signal ([1]; compound 1.48437e-5 M)?
A: 6

Q: And the FP signal ([1]; compound 2.96875e-5 M)?
A: 6

Q: And the FP signal ([1]; compound 5.9375e-5 M)?
A: 26

Q: And the FP signal ([1]; compound 0.00011875 M)?
A: 67

Q: And the FP signal ([1]; compound 0.0002375 M)?
A: 127

Q: And the FP signal ([1]; compound 0.000475 M)?
A: 188

Q: What about the FP signal ([1]; compound 0.00095 M) of the same molecule?
A: 241

Q: What about the EC50 ([2]; read-out: EC50) of the same molecule?
A: 275 µM

Q: And the FP signal ([2]; compound 453 pM)?
A: 1

Q: And the FP signal ([2]; compound 906 pM)?
A: 2

Q: What about the FP signal ([2]; compound 1.81198e-9 M) of the same molecule?
A: 2

Q: And the FP signal ([2]; compound 3.62396e-9 M)?
A: 3

Q: What about the FP signal ([2]; compound 7.24792e-9 M) of the same molecule?
A: 3

Q: What about the FP signal ([2]; compound 1.44958e-8 M) of the same molecule?
A: 1

Q: And the FP signal ([2]; compound 2.89917e-8 M)?
A: 3

Q: And the FP signal ([2]; compound 5.79834e-8 M)?
A: 4

Q: What about the FP signal ([2]; compound 1.15967e-7 M) of the same molecule?
A: 3

Q: And the FP signal ([2]; compound 2.31934e-7 M)?
A: 4

Q: What about the FP signal ([2]; compound 4.63867e-7 M) of the same molecule?
A: 6

Q: What about the FP signal ([2]; compound 9.27734e-7 M) of the same molecule?
A: 3

Q: And the FP signal ([2]; compound 1.85547e-6 M)?
A: 3

Q: And the FP signal ([2]; compound 3.71094e-6 M)?
A: 4

Q: And the FP signal ([2]; compound 7.42187e-6 M)?
A: 6

Q: And the FP signal ([2]; compound 1.48437e-5 M)?
A: 6

Q: And the FP signal ([2]; compound 2.96875e-5 M)?
A: 6

Q: And the FP signal ([2]; compound 5.9375e-5 M)?
A: 26

Q: And the FP signal ([2]; compound 0.00011875 M)?
A: 67

Q: And the FP signal ([2]; compound 0.0002375 M)?
A: 127

Q: And the FP signal ([2]; compound 0.000475 M)?
A: 188

Q: And the FP signal ([2]; compound 0.00095 M)?
A: 241

Q: For `NCCCC1NCc2ccccc2Sc2ccccc2CNC(=O)C(Cc2c[nH]c3ccccc23)NC(=O)C(Cc2ccccc2)NC1=O` (stereo not drawn) [CY007345], which FP signal ([1]; compound 476.8 pM) is on record?
A: 5

Q: And the FP signal ([1]; compound 953.7 pM)?
A: 5

Q: What about the FP signal ([1]; compound 1.90735e-9 M) of the same molecule?
A: 4

Q: And the FP signal ([1]; compound 3.8147e-9 M)?
A: 7

Q: What about the FP signal ([1]; compound 7.6294e-9 M) of the same molecule?
A: 5

Q: What about the FP signal ([1]; compound 1.52588e-8 M) of the same molecule?
A: 4

Q: And the FP signal ([1]; compound 3.05176e-8 M)?
A: 4

Q: What about the FP signal ([1]; compound 6.10352e-8 M) of the same molecule?
A: 7

Q: What about the FP signal ([1]; compound 1.2207e-7 M) of the same molecule?
A: 6

Q: And the FP signal ([1]; compound 2.44141e-7 M)?
A: 5

Q: What about the FP signal ([1]; compound 4.88281e-7 M) of the same molecule?
A: 6

Q: And the FP signal ([1]; compound 9.76563e-7 M)?
A: 7

Q: And the FP signal ([1]; compound 1.95313e-6 M)?
A: 8

Q: And the FP signal ([1]; compound 3.90625e-6 M)?
A: 14

Q: What about the FP signal ([1]; compound 7.8125e-6 M) of the same molecule?
A: 28

Q: And the FP signal ([1]; compound 1.5625e-5 M)?
A: 52

Q: And the FP signal ([1]; compound 3.125e-5 M)?
A: 90

Q: And the FP signal ([1]; compound 6.25e-5 M)?
A: 137

Q: And the FP signal ([1]; compound 0.000125 M)?
A: 191

Q: What about the FP signal ([1]; compound 0.00025 M) of the same molecule?
A: 224

Q: And the FP signal ([1]; compound 0.0005 M)?
A: 238

Q: And the FP signal ([1]; compound 0.001 M)?
A: 248

Q: What about the EC50 [2] of the same molecule?
A: False positive

Q: And the FP signal ([2]; compound 476.8 pM)?
A: 5

Q: And the FP signal ([2]; compound 953.7 pM)?
A: 5

Q: What about the FP signal ([2]; compound 1.90735e-9 M) of the same molecule?
A: 4

Q: And the FP signal ([2]; compound 3.8147e-9 M)?
A: 7

Q: And the FP signal ([2]; compound 7.6294e-9 M)?
A: 5

Q: What about the FP signal ([2]; compound 1.52588e-8 M) of the same molecule?
A: 4

Q: What about the FP signal ([2]; compound 3.05176e-8 M) of the same molecule?
A: 4

Q: And the FP signal ([2]; compound 6.10352e-8 M)?
A: 7

Q: And the FP signal ([2]; compound 1.2207e-7 M)?
A: 6

Q: And the FP signal ([2]; compound 2.44141e-7 M)?
A: 5

Q: What about the FP signal ([2]; compound 4.88281e-7 M) of the same molecule?
A: 6

Q: And the FP signal ([2]; compound 9.76563e-7 M)?
A: 7

Q: What about the FP signal ([2]; compound 1.95313e-6 M) of the same molecule?
A: 8

Q: And the FP signal ([2]; compound 3.90625e-6 M)?
A: 14

Q: And the FP signal ([2]; compound 7.8125e-6 M)?
A: 28

Q: And the FP signal ([2]; compound 1.5625e-5 M)?
A: 52

Q: What about the FP signal ([2]; compound 3.125e-5 M) of the same molecule?
A: 90

Q: What about the FP signal ([2]; compound 6.25e-5 M) of the same molecule?
A: 137

Q: And the FP signal ([2]; compound 0.000125 M)?
A: 191

Q: What about the FP signal ([2]; compound 0.00025 M) of the same molecule?
A: 224

Q: What about the FP signal ([2]; compound 0.0005 M) of the same molecule?
A: 238

Q: What about the FP signal ([2]; compound 0.001 M) of the same molecule?
A: 248

From article PMC9226124, “Macrocycle-stabilization of its interaction with 14-3-3 increases plasma membrane localization and activity of CFTR” (Nature Communications, 2022)
